Four molecules from PMC10216478, “Development of a Non-Peptide Angiotensin II Type 1 Receptor Ligand by Structural Modification of Olmesartan as a Biased Agonist” (Biomedicines, 2023) can be followed below.

One assay deals with T1, AT1 Q257A receptor (Rattus norvegicus, UniProt P25095, Q257A).
T1 construct: expressed in transfected cells; host or cells: COS7
T1 sequence (P25095 1-359 Q257A): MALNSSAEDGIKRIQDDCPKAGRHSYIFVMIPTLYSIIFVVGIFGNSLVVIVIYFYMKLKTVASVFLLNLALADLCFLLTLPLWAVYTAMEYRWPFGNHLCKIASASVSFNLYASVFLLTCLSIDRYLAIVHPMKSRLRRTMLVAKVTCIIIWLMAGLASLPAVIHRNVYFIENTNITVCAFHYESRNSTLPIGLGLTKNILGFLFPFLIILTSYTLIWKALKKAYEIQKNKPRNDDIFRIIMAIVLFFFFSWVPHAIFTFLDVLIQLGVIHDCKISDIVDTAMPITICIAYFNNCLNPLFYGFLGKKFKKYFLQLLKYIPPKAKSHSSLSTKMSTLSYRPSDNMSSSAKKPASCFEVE
The assay can be described thus: Competition binding study, 125I-[Sar1,Ile8]Ang II, AT1 Q257A receptor. Particulars: competition with 125I-[Sar1,Ile8]Ang II, n = 3, mean ± standard error, read-out: Binding affinity (Kd). An excerpt: (§1) We mutated four amino acids in transmembrane (TM) III, VI, and VII in the AT1 receptor (L112A, Q257A, Y292A, and N295A receptors). We determined the mutation sites of the AT1 receptor according to ARB, which produced olmesartan derivatives with different interactions and functions toward the AT1 receptor, as previously reported by Zhang et al., since the additional 4-hydroxybenzyl groups of R781253 and R794847 were predicted to extend to a sub-pocket on the bottom of the AT1 receptor ligand-binding pocket consisting of Leu^112 and Gln^257. In addition, since the biased ligand TRV027 induced changes near the NPxxY motif in TM domain 7 that are related to receptor activation, Tyr^292 and Asn^295 in the AT1 receptor were mutated.
(§2) The synthetic rat AT1 receptor gene, which was cloned in the shuttle expression vector pMT-2, was used for expression and mutagenesis, as described previously. COS7 cells (No. CRL-1651, ATCC, Manassas, VA, USA) were cultured in 10% fetal bovine serum (FBS) and penicillin- and streptomycin-supplemented Dulbecco’s modified Eagle’s essential medium (PS-DMEM) in 5% CO2 at 37 °C. In the experiments, cells were grown without a cell-growth supplement. To express the AT1 receptor protein, 10 µg of purified plasmid DNA per 10^7 cells was used in the transfection. Wild-type and mutated AT1 receptors were transiently transfected into cells using Lipofectamine 2000 liposomal reagent (Roche Applied Science, Penzberg, Germany). Cells were plated and grown and were 70–90% confluent at the time of transfection. We incubated plasmid DNA (10 µg)–lipid (10 µL) complexes for 5 min at room temperature and added and incubated the complexes with cells for 24 h. We then analyzed the parameters in transfected cells. Cell viability was >95% according to trypan blue exclusion analysis in the control experiments. Transfected cells that had been cultured for 48–72 h were harvested. Cell membranes were prepared using the nitrogen Parr bomb disruption or freeze–thaw methods.
(§3) The Kd (nM) values of receptor binding were determined with ^125I-[Sar^1, Ile^8]AngII-binding experiments under equilibrium conditions. Binding kinetics were determined following the methods described in the literature. We carried out binding by using ^125I-[Sar^1, Ile^8] AngII (2200 Ci/mmol) and an increasing concentration (10^−11–10^−5 M) of each unlabeled compound. Nonspecific binding of ^125I-[Sar^1, Ile^8] Ang II was determined in the presence of a high concentration (10^−6 M) of unlabeled [Sar^1, Ile^8]. Next, the incubation mixture was separated by vacuum filtration through Whatman GF/C glass filters (Disposable Filter Funnels Grade GF/C, GE Healthcare), and presoaked with 0.1% polyethylenimine. The filter was washed with 3 mL of ice-cold stop buffer (25 mM Tris–HCl, pH 7.4, 1 mM MgCl2). The radioactivity trapped on the filters was quantified using an automatic γ-counter. The percentage (%) of specific binding of ^125I-[Sar^1, Ile^8]Ang II was calculated using the following formula: 100 × (% total binding of ^125I-[Sar^1, Ile^8]Ang II—nonspecific binding of ^125I-[Sar^1, Ile^8]Ang II)/(% total binding of ^125I-[Sar^1, Ile^8]Ang II).

A further assay addresses T2, AT1 N295A receptor (Rattus norvegicus, UniProt P25095, N295A).
T2 construct: expressed in transfected cells; host or cells: COS7
T2 sequence (P25095 1-359 N295A): T1 sequence (P25095 1-359 Q257A) with A257Q, N295A
The assay can be described thus: Competition binding study, 125I-[Sar1,Ile8]Ang II, AT1 N295A receptor. Particulars: competition with 125I-[Sar1,Ile8]Ang II, n = 3, mean ± standard error, read-out: Binding affinity (Kd).
Excerpt: as §1, §2, §3

Numbering of substitutions follows the chain as printed.

Consider `CCCc1nc(C(C)(C)O)c(C(=O)O)n1Cc1ccc(-c2ccccc2-c2nnn[nH]2)cc1` [Olmesartan, olmesartan], for which the equilibrium dissociation constant (Kd) at AT1 Q257A receptor amounted to 228 ± 38 nM; at AT1 N295A receptor it was 334 ± 105 nM.

`CCCc1nc(C(C)(C)O)c(C(N)=O)n1Cc1ccc(-c2ccccc2-c2nnn[nH]2)cc1` [R239470]: the Kd at AT1 Q257A receptor came to 20 ± 2 nM; on AT1 N295A receptor it was 69 ± 8 nM.

Take `CCCc1nc(C(C)(C)O)c(C(=O)O)n1Cc1ccc(-c2cc(Cc3ccc(O)cc3)ccc2-c2nnn[nH]2)cc1` [R781253]: the Kd on AT1 Q257A receptor is 14 ± 6 nM; on AT1 N295A receptor it was above 10000 nM.

Consider `CCCc1nc(C(C)(C)O)c(C(N)=O)n1Cc1ccc(-c2cc(Cc3ccc(O)cc3)ccc2-c2nnn[nH]2)cc1` [R794847], for which the values for the equilibrium dissociation constant (Kd) at AT1 Q257A receptor and at AT1 N295A receptor were 2.7 ± 0.8 nM and above 10000 nM, respectively.

By Kd is commonly meant the equilibrium constant for the complex coming apart.
